Assay results taken from patent US20200237695A1, “LEVOTHYROXINE LIQUID FORMULATIONS” (Hikma Pharmaceuticals USA Inc., priority 2019, published 2020).
Values after ≈ are worked out from the molar mass of the structure shown.

Test: Levothyroxine solubilization in aqueous amino acid solutions
Type: physicochemical
Conditions: aqueous buffer
Protocol: The formulations can further include one or more pH adjusters, for example, a single pH adjuster. The pH adjuster can be an amino acid, which can be the sole amino acid and pH adjuster in the formulation. The pH adjuster serves to aid in adjusting the pH of the aqueous formulation and selectively the solubilization of levothyroxine or any salt thereof in the liquid formulation. In one or more embodiments, the pH adjuster is arginine. In water, a concentration of arginine from about 1 mg/mL to about 20 mg/mL adjust the pH of water to about 10.3 to about 11.

N[C@@H](Cc1cc(I)c(Oc2cc(I)c(O)c(I)c2)c(I)c1)C(=O)O [levothyroxine, 4-(4-hydroxy-3,5-diiodophenoxy)-3,5-diiodo-L-phenylalanine]
solubility (aqueous arginine solution, arginine in aqueous solutions): > 500 µg/mL | solubility (aqueous aspartic acid solution, aspartic acid 1 mg/mL in water): 450 µg/mL (≈ 579 µM) | solubility (aqueous aspartic acid solution, aspartic acid 4 mg/mL in water): 100 µg/mL (≈ 129 µM)
